Source: ChEMBL document CHEMBL4196012 (Eur J Med Chem, 2018)
≈ marks a conversion by molar mass, not a printed value.

Tests used:
Bacillus subtilis = test: Antibacterial activity against Bacillus subtilis PTCC 1023 by agar dilution method; format: functional
Staphylococcus aureus [1] = test: Antibacterial activity against Staphylococcus aureus ATCC 6538P by agar dilution method; format: functional
Staphylococcus aureus [2] = test: Antibacterial activity against quinolone-resistant Staphylococcus aureus after 16 to 20 hrs by NCCLS microdilution method; format: functional
[3] = tested on: Staphylococcus epidermidis; test: Antibacterial activity against Staphylococcus epidermidis ATCC 12228 by agar dilution method; format: functional
Streptococcus pneumoniae = test: Antibacterial activity against quinolone-resistant Streptococcus pneumoniae after 16 to 20 hrs by NCCLS microdilution method; format: functional
Escherichia coli [4] = test: In vivo antibacterial activity against Escherichia coli NCTC 10419 infected in po dosed mouse administered at 1 and 4 hrs post infection; format: functional, organism-based
Enterococcus faecium = test: Antibacterial activity against vancomycin and quinolone-resistant Enterococcus faecium after 16 to 20 hrs by NCCLS microdilution method; format: functional
Escherichia coli [5] = test: microbe, parasite or virus in culture; conditions: NCTC 10419
Pseudomonas aeruginosa = test: Antibacterial activity against Pseudomonas aeruginosa ATCC 9027 after 18 hrs by agar dilution method; format: functional; conditions: ATCC 9027, 18 h
Staphylococcus aureus [6] = test: Antibacterial activity against Staphylococcus aureus ATCC 6538p after 18 hrs by agar dilution method; format: functional
Bacillus spizizenii = test: Antibacterial activity against Bacillus subtilis ATCC 6633 after 18 hrs by agar dilution method; format: functional; conditions: ATCC 6633, 18 h
Staphylococcus aureus [7] = test: Antibacterial activity against methicillin-resistant Staphylococcus aureus isolate 2 after 18 hrs by agar dilution method; format: functional; conditions: isolate 2, 18 h
Escherichia coli [8] = test: Antibacterial activity against Escherichia coli ATCC 8739 after 18 hrs by agar dilution method; format: functional; conditions: ATCC 8739, 18 h
Staphylococcus aureus [9] = test: Antibacterial activity against methicillin-resistant Staphylococcus aureus isolate 1 after 18 hrs by agar dilution method; format: functional; conditions: isolate 1, 18 h
[10] = tested on: Staphylococcus epidermidis; test: Antibacterial activity against Staphylococcus epidermidis ATCC 12228 after 18 hrs by agar dilution method; format: functional; conditions: ATCC 12228, 18 h
Klebsiella pneumoniae = test: Antibacterial activity against Klebsiella pneumoniae ATCC 10031 after 18 hrs by agar dilution method; format: functional; conditions: ATCC 10031, 18 h

Structure (SMILES) | MIC (Bacillus subtilis) | MIC (Staphylococcus aureus [1]) | MIC (Staphylococcus aureus [2]) | MIC [3] | MIC (Streptococcus pneumoniae) | EC50 (Escherichia coli [4]) | MIC (Enterococcus faecium) | MIC (Escherichia coli [5]) | MIC (Pseudomonas aeruginosa) | MIC (Staphylococcus aureus [6]) | MIC (Bacillus spizizenii) | MIC (Staphylococcus aureus [7]) | MIC (Escherichia coli [8]) | MIC (Staphylococcus aureus [9]) | MIC [10] | MIC (Klebsiella pneumoniae)
O=C(O)c1cn(C2CC2)c2cc(N3CCNCC3)c(F)cc2c1=O [CIPROFLOXACIN] | 0.015 to 0.5 mg/L (≈ 0.0453 to 1.51 µM) | 0.015 to 0.5 mg/L (≈ 0.0453 to 1.51 µM) | ≥ 32 mg/L | 0.015 to 0.5 mg/L (≈ 0.0453 to 1.51 µM) | ≥ 32 mg/L | 1.25 mg/kg | ≥ 32 mg/L | 1.1 nM (≈ 0.364 ng/mL) |  |  |  |  |  |  |  | 
O=C(CN1CCN(c2cc3c(cc2F)c(=O)c(C(=O)O)cn3C2CC2)CC1)c1cc2ccccc2oc1=O |  |  |  |  |  |  |  |  | 0.025 to 1.56 mg/L (≈ 0.0483 to 3.01 µM) | 0.025 to 1.56 mg/L (≈ 0.0483 to 3.01 µM) | 0.025 to 1.56 mg/L (≈ 0.0483 to 3.01 µM) | 0.025 to 1.56 mg/L (≈ 0.0483 to 3.01 µM) | 0.025 to 1.56 mg/L (≈ 0.0483 to 3.01 µM) | 0.025 to 1.56 mg/L (≈ 0.0483 to 3.01 µM) | 0.025 to 1.56 mg/L (≈ 0.0483 to 3.01 µM) | 0.025 to 1.56 mg/L (≈ 0.0483 to 3.01 µM)
